Source: patent US6235284A, “Synthetic polypeptides belonging to the hepatitis C virus (HCV) and which can be used especially for detecting the latter” (Bio Merieux, priority 1992, dated 2001)

Test system: anti-HCV antibodies (HCV-positive sera)
Assay: ELISA detection of anti-HCV antibodies in HCV-positive sera with adsorbed peptides
Assay type: binding, human
Experimental: The reactivity of these three peptides towards the sera of individuals infected with the hepatitis C virus, termed (HCV) positive, was evaluated in an ELISA test according to the procedure described below.
Detection of anti-HCV Antibodies by ELISA
The wells of a microtiter plate of "NUNC MAXISORB™" trademark are saturated with 100 μl of a solution containing the peptide or a mixture of peptides (10 μg/ml) for 2 hours at 37° C. The plate is then emptied, then washed with a wash buffer containing 0.05% TWEEN™ 20(polysorbate 20). The wells are saturated with 100 μl of wash buffer supplemented with 10% goat serum (v/v), then incubated for 30 minutes at 37° C., then washed again as above. The sera to be analyzed are diluted to the appropriate dilution with saturation buffer. The incubation of the sera is 1 hour at 37° C. The wells are again washed. The solution of conjugate (goat IgG to human IgG labelled with peroxidase) at a dilution of 1/1000 in the saturation buffer is then added and the incubation lasts for 90 minutes at 37° C. After washing, the solution of orthophenylenediamine substrate is added. After 10 minutes, the reaction is stopped with 50 μl of H2 SO4 and the optical density is read at 492 nm. It should be noted that all the tests were carried out in duplicate.
For that, the different peptides are adsorbed on the microplates at a concentration of 10 μg/ml and the sera are used at 1/100 dilution.
The values obtained, which are collated in Table 1 below, correspond to the optical density (OD) multiplied by 10^3, at 492 nm.
For each serum the experiment was carried out in duplicate. The **** are values outside the upper scale.
The different peptides are absorbed onto microplates at a concentration of 10 μg/ml and the sera are used at the dilution stated.
The values obtained, which are collated in Table 2 below, correspond to the optical density at 492 nm. All the experiments were carried out in duplicate.
Each serum was, in a first instance, tested at the dilution 1/100.
The values given correspond to the optical density read at 492 nm multiplied by the factor 10^3.

| Substance | optical density at 492 nm (Table 4, serum A 8, 1/1000) | optical density at 492 nm (Table 4, serum A 8, 1/10,000) | optical density at 492 nm (Table 4, serum A 9, 1/1000) | optical density at 492 nm (Table 4, serum A 9, 1/10,000) | optical density at 492 nm (Table 4, serum A 10, 1/100) | optical density at 492 nm (Table 4, serum A 10, 1/1000) | optical density at 492 nm (Table 4, serum A 10, 1/10,000) | optical density at 492 nm (Table 4, serum A 11, 1/100) | optical density at 492 nm (Table 4, serum A 11, 1/1000) | optical density at 492 nm (Table 4, serum A 11, 1/10,000) | optical density at 492 nm (Table 4, serum A 12, 1/10,000) | optical density at 492 nm (Table 4, serum P 1, 1/100) | optical density at 492 nm (Table 4, serum P 2, 1/100) | optical density at 492 nm (Table 4, serum P 3, 1/100) | optical density at 492 nm (Table 4, serum P 4, 1/1000) | optical density at 492 nm (Table 4, serum P 4, 1/10,000) | optical density at 492 nm (Table 4, serum P 5, 1/10,000) | optical density at 492 nm (Table 4, serum P 7, 1/10,000) | optical density at 492 nm (Table 4, serum P 8, 1/10,000) | optical density at 492 nm (Table 4, serum P 10, 1/100) | other results |
| --- | --- | --- | --- | --- | --- | --- | --- | --- | --- | --- | --- | --- | --- | --- | --- | --- | --- | --- | --- | --- | --- |
| K22Y: peptide corresponding to the amino acid sequence 12 to 35 of the CORE protein (KRNTNRRPQDVKFPGGGQIVGGVY) | 431 OD × 10^3 | 56 OD × 10^3 | 282 OD × 10^3 | 43 OD × 10^3 | 2114 OD × 10^3 | 207 OD × 10^3 | 26 OD × 10^3 | 1878 OD × 10^3 | 212 OD × 10^3 | 31 OD × 10^3 | 62 OD × 10^3 | 435 OD × 10^3 | 666 OD × 10^3 | 1031 OD × 10^3 | 1959 OD × 10^3 | 300 OD × 10^3 | 394 OD × 10^3 | 1487 OD × 10^3 | 335 OD × 10^3 | 66 OD × 10^3 | optical density at 492 nm (Table 4, serum A 9, 1/100): 2152 OD × 10^3; optical density at 492 nm (Table 4, serum A 12, 1/1000): 646 OD × 10^3; optical density at 492 nm (Table 4, serum B 3, 1/100): 2033 OD × 10^3; optical density at 492 nm (Table 4, serum P 8, 1/1000): 2257 OD × 10^3; optical density at 492 nm (Table 4, serum P 14, 1/10,000): 398 OD × 10^3; optical density at 492 nm (Table 4, serum P 16, 1/1000): 610 OD × 10^3; optical density at 492 nm (Table 4, serum P 16, 1/10,000): 75 OD × 10^3; optical density at 492 nm (Table 4, serum P 17, 1/100): 1930 OD × 10^3; optical density at 492 nm (Table 4, serum P 23, 1/100): 125 OD × 10^3; optical density at 492 nm (Table 4, serum P 24, 1/100): 735 OD × 10^3; optical density at 492 nm (Table 4, serum P 29, 1/100): 310 OD × 10^3; optical density at 492 nm (Table 4, serum P 30, 1/100): 1805 OD × 10^3 |
| K32G: peptide corresponding to the amino acid sequence 12 to 45 of the CORE protein (KRNTNRRPQDVKFPGGGQIVGGVYLLPRRGPTLG) | – | – | – | – | – | – | – | – | – | – | – | – | – | – | – | – | – | – | – | – | optical density at 492 nm (Table 5, serum A8, 1/10,000): 666 OD × 10^3; optical density at 492 nm (Table 5, serum A 9, 1/1000): 1675 OD × 10^3; optical density at 492 nm (Table 5, serum A 9, 1/10,000): 229 OD × 10^3; optical density at 492 nm (Table 5, serum A11, 1/1000): 2108 OD × 10^3; optical density at 492 nm (Table 5, serum A11, 1/10,000): 343 OD × 10^3; optical density at 492 nm (Table 5, serum A12, 1/10,000): 598 OD × 10^3; optical density at 492 nm (Table 5, serum A13, 1/10,000): 1247 OD × 10^3; optical density at 492 nm (Table 5, serum A14, 1/1000): 998 OD × 10^3; optical density at 492 nm (Table 5, serum A14, 1/10,000): 103 OD × 10^3; optical density at 492 nm (Table 5, serum A15, 1/10,000): 715 OD × 10^3; optical density at 492 nm (Table 5, serum A19, 1/10,000): 594 OD × 10^3; optical density at 492 nm (Table 5, serum A21, 1/1000): 993 OD × 10^3; optical density at 492 nm (Table 5, serum A21, 1/10,000): 123 OD × 10^3; optical density at 492 nm (Table 5, serum A22, 1/1000): 876 OD × 10^3; optical density at 492 nm (Table 5, serum A22, 1/10,000): 129 OD × 10^3; optical density at 492 nm (Table 5, serum A23, 1/10,000): 774 OD × 10^3; reactivity towards HCV-positive sera (in words): little or no difference is observed in reactivity |
| P27Y: peptide corresponding to the amino acid sequence 7 to 35 of the CORE protein (PQRKTKRNTNRRPQDVKFPGGGQIVGGVY) | 1198 OD × 10^3 | 118 OD × 10^3 | 1388 OD × 10^3 | 182 OD × 10^3 | 2308 OD × 10^3 | 334 OD × 10^3 | 31 OD × 10^3 | 1937 OD × 10^3 | 226 OD × 10^3 | 33 OD × 10^3 | 365 OD × 10^3 | 620 OD × 10^3 | 891 OD × 10^3 | 1470 OD × 10^3 | 2111 OD × 10^3 | 324 OD × 10^3 | 856 OD × 10^3 | 1667 OD × 10^3 | 654 OD × 10^3 | 60 OD × 10^3 | optical density at 492 nm (Table 4, serum P 14, 1/10,000): 566 OD × 10^3; optical density at 492 nm (Table 4, serum P 16, 1/1000): 913 OD × 10^3; optical density at 492 nm (Table 4, serum P 16, 1/10,000): 104 OD × 10^3; optical density at 492 nm (Table 4, serum P 17, 1/100): 2300 OD × 10^3; optical density at 492 nm (Table 4, serum P 23, 1/100): 138 OD × 10^3; optical density at 492 nm (Table 4, serum P 24, 1/100): 1063 OD × 10^3; optical density at 492 nm (Table 4, serum P 29, 1/100): 347 OD × 10^3; optical density at 492 nm (Table 4, serum P 30, 1/100): 2274 OD × 10^3 |
